Measured values taken from PubChem BioAssay (NCI).
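In this assay, cells in 96-well plates receive the compound at five concentrations for 48 hours. Endpoints are linearly interpolated between the surrounding concentrations. TGI: total growth inhibition.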

Tests used:
Test in all cases: DTP human tumour cell line panel, 48 h
[1] = system: MDA-MB-231 breast
[2] = system: CCRF-CEM leukemia
[3] = system: MALME-3M melanoma
[4] = system: T-47D breast
[5] = system: SN12C renal
[6] = system: RPMI-8226 leukemia
[7] = system: SF-539 CNS
[8] = system: SK-MEL-28 melanoma
[9] = system: OVCAR-5 ovarian
[10] = system: DU-145 prostate
[11] = system: HS 578T breast
[12] = system: SNB-75 CNS
[13] = system: MOLT-4 leukemia
[14] = system: HL-60(TB) leukemia
[15] = system: K-562 leukemia
[16] = system: A498 renal
[17] = system: RXF 393 renal
[18] = system: HT29 colon
[19] = system: OVCAR-3 ovarian
[20] = system: U251 CNS
[21] = system: NCI-H226 lung
[22] = system: EKVX NSCLC
[23] = system: CAKI-1 renal
[24] = system: MDA-N
[25] = system: OVCAR-4 ovarian
[26] = system: LOX IMVI melanoma
[27] = system: SW-620 colon
[28] = system: HCT-15 colon
[29] = system: NCI-H460 lung
[30] = system: TK-10 renal
[31] = system: UO-31 renal
[32] = system: SK-OV-3 ovarian
[33] = system: PC-3 prostate
[34] = system: KM12 colon
[35] = system: IGROV1 ovarian
[36] = system: SF-268 CNS
[37] = system: ACHN renal
[38] = system: BT-549 breast
[39] = system: SNB-19 CNS
[40] = system: MDA-MB-435
[41] = system: COLO 205 colon
[42] = system: SK-MEL-2 melanoma
[43] = system: OVCAR-8 ovarian
[44] = system: NCI/ADR-RES ovarian
[45] = system: HCT-116 colon
[46] = system: A549 NSCLC
[47] = system: M14 melanoma
[48] = system: HOP-62 NSCLC
[49] = system: HOP-92 NSCLC
[50] = system: SR leukemia
[51] = system: UACC-257 melanoma
[52] = system: HCC-2998 colon
[53] = system: UACC-62 melanoma
[54] = system: NCI-H522 lung
[55] = system: SK-MEL-5 melanoma
[56] = system: SF-295 CNS
[57] = system: MCF7 breast
[58] = system: 786-0 renal
[59] = system: NCI-H23 lung

`Nc1nc(N)c2cc(Sc3ccc4nc(N)nc(N)c4c3)ccc2n1` showed a TGI [1] greater than 100 µM, a TGI [2] of 0.0104 µM and a TGI [3] greater than 100 µM. It also gave a TGI [4] greater than 100 µM, a TGI [5] greater than 100 µM and a TGI [6] greater than 100 µM. The TGI [7] was greater than 100 µM, the TGI [8] was greater than 100 µM and the TGI [9] was greater than 100 µM. For the same compound, the TGI [10] was greater than 100 µM, the TGI [11] was greater than 100 µM and the TGI [12] was greater than 100 µM. For the same compound, the TGI [13] was greater than 100 µM, the TGI [14] was greater than 100 µM and the TGI [15] was greater than 100 µM. For the same compound, the TGI [16] was greater than 100 µM, the TGI [17] was greater than 100 µM and the TGI [18] was greater than 100 µM. It also gave a TGI [19] greater than 31.6 µM, a TGI [20] greater than 100 µM and a TGI [21] greater than 100 µM. It also gave a TGI [22] greater than 100 µM, a TGI [23] greater than 100 µM and a TGI [24] greater than 100 µM. For the same compound, the TGI [25] was greater than 100 µM, the TGI [26] was greater than 100 µM and the TGI [27] was greater than 100 µM. The TGI [28] was greater than 100 µM, the TGI [29] was greater than 100 µM and the TGI [30] was greater than 100 µM. It also gave a TGI [31] greater than 100 µM, a TGI [32] greater than 100 µM and a TGI [33] greater than 100 µM. The TGI [34] was greater than 100 µM, the TGI [35] was greater than 100 µM and the TGI [36] was greater than 100 µM. For the same compound, the TGI [37] was greater than 100 µM, the TGI [38] was greater than 100 µM and the TGI [39] was greater than 100 µM. The TGI [40] was greater than 100 µM, the TGI [41] was greater than 100 µM and the TGI [42] was greater than 100 µM. It also gave a TGI [43] greater than 100 µM, a TGI [44] greater than 100 µM and a TGI [45] greater than 100 µM. For the same compound, the TGI [46] was greater than 100 µM, the TGI [47] was greater than 100 µM and the TGI [48] was greater than 100 µM. The TGI [49] was greater than 100 µM, the TGI [50] was greater than 100 µM and the TGI [51] was greater than 100 µM. The TGI [52] was greater than 100 µM.
For `O=c1c(C=Nc2ccccc2Cl)c(O)n(-c2ccccc2)c(=O)n1-c1ccccc1`, the TGI [1] was greater than 100 µM, the TGI [2] was greater than 100 µM and the TGI [3] was greater than 100 µM. The TGI [4] was greater than 100 µM, the TGI [5] was greater than 100 µM and the TGI [6] was greater than 100 µM. It also gave a TGI [7] greater than 100 µM, a TGI [9] greater than 100 µM and a TGI [53] greater than 100 µM. It also gave a TGI [11] greater than 100 µM, a TGI [13] greater than 100 µM and a TGI [15] greater than 100 µM. For the same compound, the TGI [16] was greater than 100 µM, the TGI [17] was greater than 100 µM and the TGI [18] was greater than 100 µM. For the same compound, the TGI [19] was greater than 100 µM, the TGI [20] was greater than 100 µM and the TGI [21] was greater than 100 µM. It also gave a TGI [22] greater than 100 µM, a TGI [23] greater than 100 µM and a TGI [54] greater than 100 µM. For the same compound, the TGI [24] was greater than 100 µM, the TGI [25] was greater than 100 µM and the TGI [26] was greater than 100 µM. The TGI [27] was greater than 100 µM, the TGI [55] was greater than 100 µM and the TGI [28] was greater than 100 µM. The TGI [29] was greater than 100 µM, the TGI [30] was greater than 100 µM and the TGI [31] was greater than 100 µM. It also gave a TGI [32] greater than 100 µM, a TGI [56] greater than 100 µM and a TGI [57] greater than 100 µM. For the same compound, the TGI [33] was greater than 100 µM, the TGI [34] was greater than 100 µM and the TGI [35] was greater than 100 µM. It also gave a TGI [36] greater than 100 µM, a TGI [37] greater than 100 µM and a TGI [38] greater than 100 µM. The TGI [39] was greater than 100 µM, the TGI [40] was greater than 100 µM and the TGI [41] was greater than 100 µM. It also gave a TGI [42] greater than 100 µM, a TGI [43] greater than 100 µM and a TGI [44] greater than 100 µM. The TGI [45] was greater than 100 µM, the TGI [46] was greater than 100 µM and the TGI [58] was greater than 100 µM. The TGI [47] was greater than 100 µM, the TGI [48] was greater than 100 µM and the TGI [49] was greater than 100 µM. The TGI [51] was greater than 100 µM, the TGI [59] was greater than 100 µM and the TGI [52] was greater than 100 µM.
For `CN(C)C=C1C(=O)c2c(Br)sc(Br)c2C1=O`, the TGI [2] was greater than 100 µM, the TGI [3] was 29.3 µM and the TGI [4] was greater than 100 µM. The TGI [5] was greater than 100 µM, the TGI [6] was greater than 100 µM and the TGI [7] was 35.7 µM. It also gave a TGI [8] of 31.3 µM, a TGI [9] of 76.2 µM and a TGI [53] of 37.1 µM. For the same compound, the TGI [10] was greater than 100 µM, the TGI [11] was 46.9 µM and the TGI [12] was 43.5 µM. The TGI [13] was greater than 100 µM, the TGI [14] was 53.7 µM and the TGI [15] was 66.4 µM. The TGI [16] was 47.8 µM, the TGI [17] was 42.4 µM and the TGI [18] was 86.5 µM. For the same compound, the TGI [19] was 40.8 µM, the TGI [20] was 39.6 µM and the TGI [21] was 33.3 µM. It also gave a TGI [22] of 40.5 µM, a TGI [23] of 36 µM and a TGI [54] of 31.5 µM. The TGI [24] was 42.1 µM, the TGI [25] was 31.7 µM and the TGI [26] was 38.9 µM. The TGI [27] was greater than 100 µM, the TGI [55] was 30.6 µM and the TGI [28] was 54.7 µM. For the same compound, the TGI [29] was 48.7 µM, the TGI [30] was 99.7 µM and the TGI [31] was 47.5 µM. The TGI [32] was 62.7 µM, the TGI [56] was 49.7 µM and the TGI [57] was greater than 100 µM. It also gave a TGI [33] of 49.9 µM, a TGI [34] greater than 100 µM and a TGI [35] of 46.8 µM. The TGI [36] was 32.5 µM, the TGI [37] was 93.7 µM and the TGI [38] was 48.4 µM. It also gave a TGI [39] of 80.4 µM, a TGI [40] of 29.5 µM and a TGI [41] of 37.7 µM. For the same compound, the TGI [42] was 31.3 µM, the TGI [43] was 72.3 µM and the TGI [44] was 73.2 µM. It also gave a TGI [45] of 53.9 µM, a TGI [46] greater than 100 µM and a TGI [58] greater than 100 µM. The TGI [47] was 33.8 µM, the TGI [48] was 91.4 µM and the TGI [49] was 37.1 µM. It also gave a TGI [51] of 33 µM, a TGI [59] of 37.8 µM and a TGI [52] of 25.9 µM.
With `O=C1c2cccc3cc([N+](=O)[O-])cc(c23)C(=O)N1CCCN1CCN(CCCNc2ccc3ncn4c5ccccc5c(=O)c2c34)CC1` the TGI [1] was 0.62 µM, the TGI [2] was 5 µM and the TGI [6] was greater than 50 µM. For the same compound, the TGI [7] was 0.0871 µM, the TGI [8] was greater than 25.5 µM and the TGI [9] was greater than 16.9 µM. It also gave a TGI [53] greater than 50 µM, a TGI [10] greater than 19.9 µM and a TGI [11] of 8.75 µM. The TGI [12] was 0.187 µM, the TGI [13] was greater than 50 µM and the TGI [16] was 5.67 µM. For the same compound, the TGI [18] was less than 0.005 µM, the TGI [19] was greater than 17.2 µM and the TGI [20] was 0.00861 µM. The TGI [21] was less than 0.005 µM, the TGI [22] was greater than 50 µM and the TGI [23] was 0.00674 µM. For the same compound, the TGI [24] was 0.579 µM, the TGI [25] was greater than 50 µM and the TGI [27] was greater than 50 µM. It also gave a TGI [28] greater than 50 µM, a TGI [29] greater than 50 µM and a TGI [32] greater than 20 µM. The TGI [57] was less than 0.005 µM, the TGI [33] was greater than 17.1 µM and the TGI [36] was 16.1 µM. The TGI [38] was 0.0361 µM, the TGI [39] was greater than 50 µM and the TGI [40] was greater than 50 µM. The TGI [42] was greater than 29 µM, the TGI [43] was 0.173 µM and the TGI [44] was 0.0864 µM. It also gave a TGI [46] greater than 50 µM, a TGI [47] of 0.0785 µM and a TGI [48] of 1.74 µM. The TGI [49] was greater than 50 µM and the TGI [51] was greater than 50 µM.
